This test concerns BDF1 mice, Adenocarcinoma 755 s.c., tumor weight T/C. Briefly: NCI In Vivo Anticancer Drug Screen. Data for tumor model Adenocarcinoma 755 (subcutaneous) in B6D2F1 (BDF1) mice. Conditions: endpoint: mean tumor weight, higher = larger tumour. In a few lines:
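Tumor-bearing mice receive test compound while controls get vehicle alone. Antitumor effect is scored from survival or tumor dimensions as a T/C quotient.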

The mark [1] stands for this setting: dose: 50.0 mg/kg/injection, schedule: Q01DX011 (ip), vehicle: carboxymethylcellulose (CMC).
Setting [2] is: dose: 60.0 mg/kg/injection, schedule: Q01DX011 (ip), vehicle: carboxymethylcellulose (CMC).
Setting [3] is: dose: 50.0 mg/kg/injection, schedule: Q01DX011 (ip), vehicle: methylcellulose (MC).
Where [4] appears, read: dose: 100.0 mg/kg/injection, schedule: Q01DX011 (ip), vehicle: methylcellulose (MC).
Setting [5] is: dose: 30.0 mg/kg/injection, schedule: Q01DX011 (ip), vehicle: methylcellulose (MC).
[6] abbreviates: dose: 25.0 mg/kg/injection, schedule: Q01DX011 (ip), vehicle: carboxymethylcellulose (CMC).
The mark [7] stands for this setting: dose: 175.0 mg/kg/injection, schedule: Q01DX011 (ip), vehicle: methylcellulose (MC).
Where [8] appears, read: dose: 12.5 mg/kg/injection, schedule: Q01DX011 (ip), vehicle: methylcellulose (MC).

Values joined by “and” are separate entries in the source; they are usually repeats but may differ in a detail not shown here. Equal entries are not always repeated.

In general, T/C refers to the ratio of treated to control. Regarding `Nc1nc2ncc(CNc3ccc(C(=O)NC(CCC(=O)O)C(=O)O)cc3)nc2c(=O)[nH]1` (stereo not drawn), the T/C is, setting by setting: (dose: 6.95 mg/kg/injection, schedule: Q01DX011 (ip), vehicle: carboxymethylcellulose (CMC)) 78 % of control; (dose: 13.9 mg/kg/injection, schedule: Q01DX011 (ip), vehicle: carboxymethylcellulose (CMC)) 77 % of control; (dose: 17.38 mg/kg/injection, schedule: Q01DX011 (ip), vehicle: carboxymethylcellulose (CMC)) 221 % of control and 79 % of control; (dose: 22.24 mg/kg/injection, schedule: Q01DX011 (ip), vehicle: carboxymethylcellulose (CMC)) 63 % of control; (dose: 27.8 mg/kg/injection, schedule: Q01DX011 (ip), vehicle: carboxymethylcellulose (CMC)) 52 % of control and 60 % of control and 75 % of control; (dose: 34.75 mg/kg/injection, schedule: Q01DX011 (ip), vehicle: carboxymethylcellulose (CMC)) 65 % of control. Further, the T/C is 70 % of control (dose: 40.0 mg/kg/injection, schedule: Q01DX011 (ip), vehicle: carboxymethylcellulose (CMC)); 50 % of control under setting [1]; 33 % of control and 55 % of control (dose: 55.6 mg/kg/injection, schedule: Q01DX011 (ip), vehicle: carboxymethylcellulose (CMC)); 27 % of control under setting [2]; 68 % of control (dose: 65.0 mg/kg/injection, schedule: Q01DX011 (ip), vehicle: carboxymethylcellulose (CMC)).

Take `CSc1nc(Cl)cc(NC(=O)CCl)n1`: the T/C under setting [2] is 124 % of control.

On to `CCCCn1cnc2c(SCc3ccc(Cl)cc3Cl)nc(N)nc21`, for which the T/C runs as follows: under setting [3], 61 % of control; under setting [4], 46 % of control; (dose: 200.0 mg/kg/injection, schedule: Q01DX011 (ip), vehicle: methylcellulose (MC)) 35 % of control; (dose: 400.0 mg/kg/injection, schedule: Q01DX011 (ip), vehicle: methylcellulose (MC)) 5 % of control.

Regarding `C[C@H]1C[C@H]2[C@@H]3CC[C@](O)(C(=O)CO)[C@@]3(C)C[C@H](O)[C@]2(F)[C@@]2(C)C=CC(=O)C=C12`, the T/C by setting is: (dose: 7.0 mg/kg/injection, schedule: Q01DX011 (sc), vehicle: steriod suspending solution) 39 % of control and 49 % of control; (dose: 30.0 mg/kg/injection, schedule: Q01DX011 (sc), vehicle: steriod suspending solution) 7 % of control and 16 % of control.

As to `C/C(=N\NC(=O)c1ccncc1)c1ccccc1Cl`, the T/C runs as follows: under setting [5], 56 % of control; (dose: 60.0 mg/kg/injection, schedule: Q01DX011 (ip), vehicle: methylcellulose (MC)) 61 % of control.

Turning to `Nc1nc(Br)c2ncn(C3OC(CO)C(O)C3O)c2n1` (stereo not drawn), the T/C is 107 % of control (dose: 30.0 mg/kg/injection, schedule: Q01DX011 (ip), vehicle: carboxymethylcellulose (CMC)); 86 % of control under setting [2]; 106 % of control (dose: 120.0 mg/kg/injection, schedule: Q01DX011 (ip), vehicle: carboxymethylcellulose (CMC)); 103 % of control (dose: 240.0 mg/kg/injection, schedule: Q01DX011 (ip), vehicle: carboxymethylcellulose (CMC)).

As for `CN1CCC(N)=NC1=O`, the T/C by setting is: (dose: 15.0 mg/kg/injection, schedule: Q01DX011 (ip), vehicle: saline) 88 % of control; (dose: 31.0 mg/kg/injection, schedule: Q01DX011 (ip), vehicle: saline) 92 % of control; (dose: 62.0 mg/kg/injection, schedule: Q01DX011 (ip), vehicle: saline) 92 % of control; (dose: 125.0 mg/kg/injection, schedule: Q01DX011 (ip), vehicle: saline) 65 % of control; (dose: 250.0 mg/kg/injection, schedule: Q01DX011 (ip), vehicle: saline) 74 % of control.

For the compound `NNc1ncnc2nc[nH]c12`, the T/C runs as follows: under setting [6], 68 % of control; (dose: 37.5 mg/kg/injection, schedule: Q01DX011 (ip), vehicle: carboxymethylcellulose (CMC)) 57 % of control.

Take `O=C(CCCl)N1CCN(C(=O)CCCl)CC1`: the T/C runs as follows: (dose: 11.25 mg/kg/injection, schedule: Q01DX011 (ip), vehicle: methylcellulose (MC)) 64 % of control; (dose: 22.5 mg/kg/injection, schedule: Q01DX011 (ip), vehicle: methylcellulose (MC)) 66 % of control; (dose: 44.0 mg/kg/injection, schedule: Q01DX011 (ip), vehicle: saline) 86 % of control; (dose: 45.0 mg/kg/injection, schedule: Q01DX011 (ip), vehicle: methylcellulose (MC)) 80 % of control; (dose: 87.5 mg/kg/injection, schedule: Q01DX011 (ip), vehicle: saline) 63 % of control; (dose: 90.0 mg/kg/injection, schedule: Q01DX011 (ip), vehicle: methylcellulose (MC)) 56 % of control. The T/C under setting [7] was 26 % of control and 33 % of control and 50 % of control; the T/C (dose: 175.0 mg/kg/injection, schedule: Q01DX011 (ip), vehicle: saline) is 70 % of control; the T/C (dose: 263.0 mg/kg/injection, schedule: Q01DX011 (ip), vehicle: saline) was 40 % of control.

For the compound `c1ccc(N2N=C3N(c4ccccc4)C2N3c2ccccc2)cc1`, where the note is “dose: 15.0 mg/kg/injection, schedule: Q01DX011 (ip), vehicle: other”, the T/C is 87 % of control.

For `CCN(CC)CCCC(C)Nc1c2ccc(Cl)cc2nc2ccc(OC)cc12` (stereo not drawn), the T/C was 68 % of control under setting [6]; 62 % of control under setting [1]; 52 % of control (dose: 100.0 mg/kg/injection, schedule: Q01DX011 (ip), vehicle: carboxymethylcellulose (CMC)).

With `Clc1cccc(CSc2ncnc3c2ncn3C2CCCCO2)c1` (stereo not drawn), the T/C under setting [5] is 18 % of control and the T/C under setting [4] was 6 % of control.

In the case of `CC/C(=C(/CC)c1ccc(O)cc1)c1ccc(O)cc1`, the T/C is 114 % of control (dose: 40.0 mg/kg/injection, schedule: Q01DX011 (sc), vehicle: steriod suspending solution); 53 % of control (dose: 41.2 mg/kg/injection, schedule: Q01DX011 (sc), vehicle: steriod suspending solution); 41 % of control (dose: 62.5 mg/kg/injection, schedule: Q01DX011 (sc), vehicle: steriod suspending solution); 45 % of control (dose: 68.66 mg/kg/injection, schedule: Q01DX011 (sc), vehicle: steriod suspending solution); 178 % of control (dose: 80.0 mg/kg/injection, schedule: Q01DX011 (sc), vehicle: steriod suspending solution); 38 % of control and 44 % of control and 50 % of control (dose: 103.0 mg/kg/injection, schedule: Q01DX011 (sc), vehicle: steriod suspending solution). Further, the T/C runs as follows: (dose: 125.0 mg/kg/injection, schedule: Q01DX011 (sc), vehicle: steriod suspending solution) 33 % of control; (dose: 160.0 mg/kg/injection, schedule: Q01DX011 (sc), vehicle: steriod suspending solution) 111 % of control; (dose: 250.0 mg/kg/injection, schedule: Q01DX011 (sc), vehicle: steriod suspending solution) 48 % of control; (dose: 320.0 mg/kg/injection, schedule: Q01DX011 (sc), vehicle: steriod suspending solution) 98 % of control.

For `Fc1ccccc1CSc1ncnc2c1ncn2C1CCCO1` (stereo not drawn), the T/C (dose: 3.4 mg/kg/injection, schedule: Q01DX011 (ip), vehicle: methylcellulose (MC)) was 82 % of control; the T/C (dose: 6.75 mg/kg/injection, schedule: Q01DX011 (ip), vehicle: methylcellulose (MC)) was 96 % of control; the T/C under setting [8] was 26 % of control; the T/C (dose: 25.0 mg/kg/injection, schedule: Q01DX011 (ip), vehicle: methylcellulose (MC)) is 1 % of control and 15 % of control; the T/C under setting [3] was 1 % of control.

In the case of `COc1cc2c3c(c4cc(OC)c(OC)cc4c2cc1OC)CN1CCC[C@H]1C3`, the T/C is 89 % of control and 71 % of control (dose: 8.8 mg/kg/injection, schedule: Q01DX006 (ip), vehicle: water); 50 % of control (dose: 20.0 mg/kg/injection, schedule: Q01DX006 (ip), vehicle: water).

Turning to `CC(C)N(C(C)C)C(C)CCNc1c2ccccc2nc2cc(Cl)ccc12` (stereo not drawn), the T/C was 64 % of control (dose: 3.0 mg/kg/injection, schedule: Q01DX011 (ip), vehicle: methylcellulose (MC)); 79 % of control (dose: 6.0 mg/kg/injection, schedule: Q01DX011 (ip), vehicle: methylcellulose (MC)); 72 % of control (dose: 12.0 mg/kg/injection, schedule: Q01DX011 (ip), vehicle: methylcellulose (MC)).

On to `CCNc1ncnc2c1cnn2C1CCCO1` (stereo not drawn), for which the T/C by setting is: (dose: 3.1 mg/kg/injection, schedule: Q01DX011 (ip), vehicle: methylcellulose (MC)) 61 % of control; (dose: 6.2 mg/kg/injection, schedule: Q01DX011 (ip), vehicle: methylcellulose (MC)) 39 % of control; under setting [8], 3 % of control.

Regarding `CCC1CN1P(=O)(Oc1cccc2ccccc12)N1CC1CC` (stereo not drawn), the T/C is, setting by setting: (dose: 88.0 mg/kg/injection, schedule: Q01DX011 (ip), vehicle: carboxymethylcellulose (CMC)) 42 % of control; (dose: 88.0 mg/kg/injection, schedule: Q01DX011 (ip), vehicle: methylcellulose (MC)) 80 % of control; under setting [7], 92 % of control; (dose: 350.0 mg/kg/injection, schedule: Q01DX011 (ip), vehicle: methylcellulose (MC)) 59 % of control.

The values above are taken from PubChem BioAssay AID180 (DTP/NCI, 2004).
